# Source: PMC8571521, “^19F-NMR reveals substrate specificity of CYP121A1 in Mycobacterium tuberculosis” (The Journal of Biological Chemistry, 2021)
# Columns and labels:
# [1] = target: T1, CYP121A1 (Mycobacterium tuberculosis, UniProt P9WPP7, S171C); assay type: binding
# T1 construct: gene cyp121
# [2] = target: T2, CYP121A1 (Mycobacterium tuberculosis, UniProt P9WPP7, I166A/S171C/I180A); assay type: binding
# T2 construct: gene cyp121
compound,measurement,setting,value
c1c[nH]cn1 [imidazole],19F-NMR titration (25-200 mM) with stepwise Soret shift,[1],changes in the NMR spectra correlated closely with a stepwise shift in the Soret band of the protein
same,19F-NMR titration with absorption (Soret) readout,[2],"in the I166A_I180A mutant, we observed rapid saturation for both of the NMR and wavelength absorption outputs"
